Experimental data published in patent US20080275135A1, “Resorcinol Derivatives and Their Use for Lowering Blood Pressure” (priority 2004, published 2008).
“Also recorded” adds a separate entry of the source.

Columns and labels:
rat aortic rings [1] = conditions: literature, Offertaler et al. 2003; cited from earlier work
[2] = Blood pressure in anesthetized rats after i.v. bolus; assay type: in vivo, Sabra rats
Procedure: The protocol for testing blood pressure was applied essentially as previously described [Shochina, M. and Horowitz, M. (1989) J. Therm. Biol. 14, 109 113]. Adult male Sabra rats weighing between 225 to 250 g had their femoral vein cannulated for intravenous (i.v.) drug administration. Anesthesia was induced by the intraperitoneal (i.p.) injection of pentobarbital sodium 6%, 60 mg/kg. The femoral artery was cannulated and a catheter (PE 10 cannulae) was connected to a pressure transducer for continuous monitoring of blood pressure with a physiograph (AcKnowledge program). After a 30 minute stabilization period, the animals were injected with either vehicle (sahine:ethanol:Emulphor® 18:1:1) or the drug (Compound 1, as described above, varying from 1 to 10 mg/kg) injected in bolus i.v. in volumes ≧500 μl. The changes in blood pressure were monitored for 60 minutes. […] The hypotensive activity of Compound 1 leads the way to a new class of atypical cannabinoids with no psychotropic activity and with a mechanism of action differing from the anti-hypertensive drugs known to date.

rat aortic rings [3] = assay: Relaxation of phenylephrine pre-contracted aortic rings; set-up: species or system Sabra rats; conditions: for maximum vasorelaxation: FIG. 2A
Procedure: Abdominal aortic rings of male Sabra rats of 300 g average body weight were obtained from the animal facility of the Hebrew University of Jerusalem, campus Ein Kerem, Jerusalem, Israel. The animals were anaesthetized by an intra-peritoneal injection of pentobarbital (50 mg kg^−1). After thoracotomy, the aorta was excised, transferred to a dish filled with Krebs-Henseleit buffer (composition in mM: NaCl 150.0, KCl 5.4, MgSO4 1.17, NaH2 PO4 1.18, NaHCO3 6.0, CaCl2 1.0, HEPES 20.0, glucose 5.5, pH 7.4), cleared of periadventitial tissue, and cut into ring segments (3 mm in length). Only segments of the abdominal aorta were used. Two stainless-steel hooks were carefully passed through the lumen of each ring. One hook was connected to an isometric force transducer (BIOPAC Instruments, Goleta, Calif.) to measure tension in the vessels. The rings were placed in a 10-ml organ bath, gassed with 5% CO2 in O2 and maintained at 37° C. The rings were stretched until an optimal basal tension of 1.0 g. After this tension was achieved they were allowed to equilibrate for 60 minutes with the bath fluid being changed every 15-20 min. Baseline tension usually stabilized within 60 min of mounting, during which time there were four replacements of bathing solution. The segment was then pre-contracted by 5 μM phenylephrine. […] The levels of relaxation were then measured. The endothelial function was assessed by testing the relaxant effect of acetylcholine (10 nM-[…]) on aortic rings pre-contracted with phenylephrine. Failure of acetylcholine to elicit relaxation of aortic rings previously subjected to rubbing of the intimal surface was taken as evidence of endothelium removal. Concentration-response curves were generated by cumulative addition of the agonist. Whenever antagonists (PTX 0.5 μg/ml, SR-141716 A, SR-144528 or 10 μM of 0-1918) were used, they were added 20 min before the agonist (FIG. 2B). All experiments were conducted with aluminum foil-covered organ bath to prevent light-induced degradation of the drugs.

cannabinoid receptor CB2 = biological target: T1, cannabinoid receptor CB2 (Homo sapiens, UniProt P34972); assay: Cannabinoid receptor binding, [3H]HU-243 displacement, transfected cells; conditions: data not shown
T1 construct: expressed in transfected cells
T1 sequence (P34972 whole entry): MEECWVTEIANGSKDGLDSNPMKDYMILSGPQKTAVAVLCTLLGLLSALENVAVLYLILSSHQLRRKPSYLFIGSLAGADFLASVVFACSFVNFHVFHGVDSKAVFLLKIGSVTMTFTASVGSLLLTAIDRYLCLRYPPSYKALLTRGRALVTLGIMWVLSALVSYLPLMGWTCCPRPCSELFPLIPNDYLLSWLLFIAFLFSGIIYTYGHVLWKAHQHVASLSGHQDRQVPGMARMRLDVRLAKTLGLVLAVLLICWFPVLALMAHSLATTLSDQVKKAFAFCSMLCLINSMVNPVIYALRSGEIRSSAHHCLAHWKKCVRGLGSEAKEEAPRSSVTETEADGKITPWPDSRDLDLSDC
Procedure: (§1) The protocol for cannabinoid receptor binding has been previously described [Devane W. A. et al. (1992) Science 258, 1946-1949]. […] Bound and free radioligand were separated by centrifugation. The data were normalized to 100% of specific binding, which was determined with 50 nM unlabeled HU-243. The Ki value was determined using the program GraphPad Prism (Version 3.02) which follows the Cheng-Prusoff equation. A sigmoid dose-response (variable slope) built-in equation in this Prism program was used to fit the curves.

cannabinoid receptor CB1 [4] = biological target: T2, cannabinoid receptor CB1 (Rattus norvegicus, UniProt P20272); assay: Cannabinoid receptor binding, [3H]HU-243 displacement, synaptosomal membranes; conditions: data not shown
T2 construct: from tissue
T2 sequence (P20272 whole entry): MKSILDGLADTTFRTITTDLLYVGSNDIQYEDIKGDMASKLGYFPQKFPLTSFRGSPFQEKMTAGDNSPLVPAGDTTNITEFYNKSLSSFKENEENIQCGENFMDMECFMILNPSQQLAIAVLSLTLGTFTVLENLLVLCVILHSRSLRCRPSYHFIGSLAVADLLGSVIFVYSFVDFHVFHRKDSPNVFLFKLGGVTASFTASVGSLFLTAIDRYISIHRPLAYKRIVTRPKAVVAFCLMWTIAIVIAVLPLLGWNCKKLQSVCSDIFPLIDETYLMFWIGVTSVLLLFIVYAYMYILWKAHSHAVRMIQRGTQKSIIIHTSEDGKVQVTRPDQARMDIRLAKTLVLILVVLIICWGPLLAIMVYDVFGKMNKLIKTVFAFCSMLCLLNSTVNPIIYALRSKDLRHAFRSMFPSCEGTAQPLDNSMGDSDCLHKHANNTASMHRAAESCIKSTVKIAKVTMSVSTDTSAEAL
Procedure: as §1

cannabinoid receptor CB1 [5] = biological target: T2, cannabinoid receptor CB1; conditions: high affinity receptor probe; read-out: dissociation constant; cited from earlier work

For C=C(C)[C@@H]1CCC(C)=C[C@H]1c1c(O)cc(O)cc1CCCCC (relative stereo) [Abn-CBD, (−)-4-(3-3,4-trans-p-menthadien-1,8)-yl-olivetol], the “antagonism by O-1918” value (rat aortic rings [1]) is given as “antagonized by 0-1918”.
For CCCCCCC(C)(C)c1cc(O)c(C/C=C(\C)CCC=C(C)C)c(O)c1 [Compound 1, 2-geranyl-5-(1,1-dimethylheptyl)-resorcinol], the “effect on blood pressure (BP)” value ([2]; 2.5 mg/kg i.v., FIG. 1) was “Reduction in blood pressure is already observed”, the “change in heart rate” value ([2]; 5 mg/kg i.v.) was “without causing change in the heart rate” and the “effect on blood pressure (BP)” value ([2]; 5 mg/kg i.v.) was “caused hypotension”. The “effect on blood pressure (BP)” value ([2]; 5 mg/kg i.v., listed as CBG-DMH) was “the effect becomes much more pronounced”, the “mean systolic blood pressure over 60 minutes” value ([2]; 1 to 10 mg/kg bolus i.v., FIG. 1) was “clear reduction of the systolic blood pressure” and the “antagonism of hypotensive effect by CBD” value ([2]; CBD in similar doses) was “antagonized by CBD”. The “antagonism of relaxation by O-1918” value (rat aortic rings [3]; 10 μM O-1918 added 20 min before agonist, FIG. 2B, listed as CBG-DMH) was “did not result in antagonism; also recorded: does not antagonize”, the “relaxation of pre-contracted segments” value (rat aortic rings [3]; cumulative doses, 5 μM phenylephrine pre-contraction) was “led to relaxation of the contracted segments” and the maximum vasorelaxation (rat aortic rings [3]; denuded artery) was 25%. The maximum vasorelaxation (rat aortic rings [3]; intact artery) was 55%, the “aortic vasorelaxant effect in presence of pertussis toxin” value (rat aortic rings [3]; pertussis toxin 0.5 μg/ml, data not shown) was “inhibited in the presence of pertussis toxin” and the vasodilator function (rat aortic rings [3]; preliminary data) was “functions as a vasodilator”. For the same compound, the “binding to CB2” value (cannabinoid receptor CB2) was “no binding” and the “binding to CB1” value (cannabinoid receptor CB1 [4]) was “no binding”.
For CCCCCCC(C)(C)c1cc(O)c2c(c1)OC(C)(C)[C@@H]1CC[C@@H](CO)C[C@@H]21 [[^3H]HU-243], the Kd (cannabinoid receptor CB1 [5]) is given as 0.045 nM.
